What was measured:
Assay type in all cases: cell-based, Escherichia coli
E. coli W3110 [1] = test: Propidium iodide (PI) assay of membrane permeability; conditions: E. coli W3110 logarithmic-phase, 15 min treatment with 5 μM peptide, PI 25 μg/mL 15 min (Fig. 5A)
Procedure: Propidium Iodide (PI) assay
Thaw the previously preserved E. coli W3110 cells from the -80 °C freezer. Scrape a small amount and inoculate it into 1 mL of LB liquid medium. Culture overnight in a 37°C shaker. Next day, inoculate the strain into fresh LB liquid medium at a 1:100 ratio and incubate at 37 °C until the OD600 reaches approximately 0.47 to 0.53. Take 100 μL of the E. coli W3110 cells and centrifuge for 2 min at 13,000 rpm. Discard the supernatant. For the untreated group, resuspend the cells in 100 μL of PBS. For the peptide treatment group, resuspend the cells in 99 μL of ddH2O and add 1 […]
μL of 0.5 mM of the different peptides. Mix thoroughly and let react for 15 min. After the treatment, take 80 μL of each sample and incubate with PI at a final concentration of 25 μg/mL for 15 min.
After incubation, wash the samples with the same amount of PBS, centrifuge, and resuspend at a 10-fold concentration. Observe the images using a Nikon Eclipse Ci-L Plus microscope. […]
(§1) Incubate overnight in a 37°C shaker. […]
Centrifuge again at
6100g for 10 min, discard the supernatant, and add 500 μL of ddH2O containing 2.5% glutaraldehyde. Resuspend and fix the cells overnight at 4°C. Centrifuge at 6100g for 10 min, remove the supernatant, and wash twice with ddH2O, letting it stand for 15 min each time, followed by centrifugation at 6100g for 10 min. Discard the supernatant. Dehydrate the sample with ethanol at concentration gradients of 30%, 60%, and 90%, without resuspension, centrifuging at 6100g for […]

E. coli W3110 [2] = test: Protein leakage assay; conditions: E. coli W3110, 5 μM peptide, 15 min, pellet analysed by SDS-PAGE, compared to R9-treated sample (Fig. S10)
Procedure: Thaw the previously preserved E. coli W3110 cells from the -80 °C freezer. Scrape a small amount and inoculate it into 1 mL of LB liquid medium. Incubate overnight in a 37°C shaker. Next day, transfer the culture to fresh LB liquid medium at a 1:100 inoculation ratio and incubate at 37 °C until the OD600 reaches approximately 0.47 to 0.53. Collect 300 μL of the E. coli W3110 cells and centrifuge for 2 min at 13,000 rpm, discarding the supernatant afterward. Resuspend the untreated group in 300 μL of PBS, and the peptide treatment group in 297 μL of ddH2O. Add 3 μL of 0.5 mM different peptides to the treatment group, mix well, and allow to react for 15 min. After the treatment, resuspend all samples in 15 μL of 6×SDS loading buffer and 15 μL of 10% SDS. All samples were heated at 99.9°C for 15 min, followed by 10% SDS-PAGE analysis and staining with Coomassie brilliant blue R250. […]
as §1

E. coli W3110 [3] = test: Scanning electron microscopy of cell morphology; conditions: E. coli W3110 logarithmic-phase, 4 h treatment at 2 μM and 5 μM (Fig. 5B, S11)
Procedure: Thaw the previously preserved E. coli W3110 cells from the -80 °C freezer. […]
Scanning electron microscopy
Thaw the previously preserved E. coli W3110 cells from the -80°C freezer. Scrape a small amount and inoculate it into 1 mL of LB liquid medium. Incubate overnight in a 37°C shaker. The next day, inoculate the strain into fresh LB liquid medium at a 1:100 ratio and incubate at 37°C until the OD600 reaches approximately 0.47 to 0.53. Take 500 μL of E. coli W3110 cells, centrifuge for 10 min at 4000 rpm, and discard the supernatant. Resuspend the cells in 500 μL of PBS, then centrifuge again at 4000 rpm for 10 min and discard the supernatant. Dissolve various macrocyclic peptides in DMSO and dilute to the required concentration. Resuspend the untreated group in 500 μL of PBS.
For the peptide treatment group, resuspend in 495 μL of ddH2O, add 5 μL of 0.2 mM or 0.5 mM peptides, mix well, and let react for 4 h.
After the treament, spot 4 μL of the sample on plates. Perform the first ten-fold dilution and mix, then continue with the second to fifth ten-fold dilutions. Incubate the plates inverted overnight in a 37°C incubator. Scan and count the colonies. For the remaining 492 μL, centrifuge at 6100g for 10 min, discard the supernatant, add 500 μL of ddH2O, and let it stand for 15 min. Centrifuge again at 6100g for 10 min, discard the supernatant, and add 500 μL of ddH2O containing 2.5% glutaraldehyde. Resuspend and fix the cells overnight at 4°C. Centrifuge at 6100g for 10 min, remove the supernatant, and wash twice with ddH2O, letting it stand for 15 min each time, followed by centrifugation at 6100g for 10 min. Discard the supernatant. Dehydrate the sample with ethanol at concentration gradients of 30%, 60%, and 90%, without resuspension, centrifuging at 6100g for […]
10 min and discarding the supernatant after each step. Finally, use 100% ethanol, rest for 15 min, centrifuge at 6100g for 10 min, discard the supernatant, and repeat with 100% ethanol, leaving about 10 μL. Then the critical point was dried and sprayed with gold, and the images were observed by […]
Prediction of binding sites between peptides and the BAM complex
Firstly, the fpocket algorithm was used, a rapid method for pocket prediction based on the three-dimensional structure of BAM complex (PDB ID: 5AYW). This method establishes a grid surrounding the protein, positioning alpha spheres on grid points devoid of spatial conflicts with protein atoms, subsequently utilizing a clustering algorithm to ascertain whether these regions constitute potential binding pockets. Alpha spheres were designated with radii ranging from 3.4Å to 6.2Å, with a prerequisite of at least 15 alpha spheres for a region to be considered a pocket. […]
PepNN evaluated each amino acid for its potentiality as a peptide binding site. […]

## Ac-DYLIWYSRSHPFRVCGS(Acp)RRRRRRRRR-NH2 (sidechain bridge or staple) [BAM-D1-R9, BAM-D1 conjugated with cell-penetrating peptide R9]
E. coli W3110 [1]
  PI red fluorescence (cell membrane permeability): notable red fluorescence intensity
E. coli W3110 [2]
  cellular protein leakage: partial cellular protein leakage
E. coli W3110 [3]
  morphological changes by scanning electron microscopy: severe damage in the cell shape and even lysis

Source: PMC11310889, “Ribosomal translation of fluorinated non-canonical amino acids for de novo biologically active fluorinated macrocyclic peptides” (Chemical Science, 2024)
